We go through two compounds from US8158152B2, “Lyophilization process and products obtained thereby” (SciDose LLC, priority 2005, dated 2012).

The conditions of series [1]: cited from earlier work.
The nature of series [2]: Solubility as stated in words. The following applies: in the presence of small quantities of HCl. It counts as physicochemical.

With `O=P1(N(CCCl)CCCl)NCCCO1` (stereo not shown) [cyclophosphamide], the solubility in ethanol entry in series [1] (ethanol) is listed as “highly soluble”. For the same compound, the solubility in water entry in series [1] (water) is “sparingly soluble”.

On to `CCC(C)n1ncn(-c2ccc(N3CCN(c4ccc(OCC5COC(Cn6cncn6)(c6ccc(Cl)cc6Cl)O5)cc4)CC3)cc2)c1=O` (stereo not shown) [itraconazole], for which the “solubility in non-aqueous solvents (e.g. THF)” value in series [2] was “high concentrations of itraconazole can be dissolved”. In series [1] (general knowledge), the “solubility in solvents, as generally considered” value is recorded as “soluble in methylene chloride only”.
